ChEMBL document CHEMBL5465560, “Selectivity Literature for EUbOPEN Chemogenomic Library” (2024)

Columns and labels:
[1] = biological target: T1, Interleukin-1 receptor-associated kinase 3 (Homo sapiens) (UniProt Q9Y616); test: Selectivity interaction (KinomeScan (DiscoverX)) EUB0000229b IRAK3; conditions: at 10 µM
T1 sequence (whole entry): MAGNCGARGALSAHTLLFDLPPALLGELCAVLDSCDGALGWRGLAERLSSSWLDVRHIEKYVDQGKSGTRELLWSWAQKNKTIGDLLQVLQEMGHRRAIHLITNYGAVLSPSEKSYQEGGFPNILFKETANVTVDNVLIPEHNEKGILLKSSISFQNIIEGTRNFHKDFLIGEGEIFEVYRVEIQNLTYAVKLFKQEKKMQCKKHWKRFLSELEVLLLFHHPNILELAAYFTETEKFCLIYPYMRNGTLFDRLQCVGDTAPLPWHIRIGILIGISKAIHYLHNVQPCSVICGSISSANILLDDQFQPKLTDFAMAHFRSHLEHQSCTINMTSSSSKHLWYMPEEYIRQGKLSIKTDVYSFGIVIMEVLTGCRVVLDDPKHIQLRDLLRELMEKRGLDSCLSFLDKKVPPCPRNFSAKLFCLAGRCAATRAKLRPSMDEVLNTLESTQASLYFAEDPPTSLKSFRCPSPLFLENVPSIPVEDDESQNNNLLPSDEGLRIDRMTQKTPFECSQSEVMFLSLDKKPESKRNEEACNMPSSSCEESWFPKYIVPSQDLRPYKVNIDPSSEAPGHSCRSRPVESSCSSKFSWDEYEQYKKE

[2] = biological target: MAP kinase-interacting serine/threonine-protein kinase 2 (Homo sapiens, UniProt Q9HBH9); test: Selectivity interaction (KinomeScan (DiscoverX)) EUB0001079a MKNK2; conditions: at 1 µM
[3] = biological target: T2, Discoidin domain-containing receptor 2 (Homo sapiens) (UniProt Q16832); test: Selectivity interaction (KinomeScan (DiscoverX)) EUB0000666a DDR2; conditions: at 10 µM
T2 sequence (whole entry): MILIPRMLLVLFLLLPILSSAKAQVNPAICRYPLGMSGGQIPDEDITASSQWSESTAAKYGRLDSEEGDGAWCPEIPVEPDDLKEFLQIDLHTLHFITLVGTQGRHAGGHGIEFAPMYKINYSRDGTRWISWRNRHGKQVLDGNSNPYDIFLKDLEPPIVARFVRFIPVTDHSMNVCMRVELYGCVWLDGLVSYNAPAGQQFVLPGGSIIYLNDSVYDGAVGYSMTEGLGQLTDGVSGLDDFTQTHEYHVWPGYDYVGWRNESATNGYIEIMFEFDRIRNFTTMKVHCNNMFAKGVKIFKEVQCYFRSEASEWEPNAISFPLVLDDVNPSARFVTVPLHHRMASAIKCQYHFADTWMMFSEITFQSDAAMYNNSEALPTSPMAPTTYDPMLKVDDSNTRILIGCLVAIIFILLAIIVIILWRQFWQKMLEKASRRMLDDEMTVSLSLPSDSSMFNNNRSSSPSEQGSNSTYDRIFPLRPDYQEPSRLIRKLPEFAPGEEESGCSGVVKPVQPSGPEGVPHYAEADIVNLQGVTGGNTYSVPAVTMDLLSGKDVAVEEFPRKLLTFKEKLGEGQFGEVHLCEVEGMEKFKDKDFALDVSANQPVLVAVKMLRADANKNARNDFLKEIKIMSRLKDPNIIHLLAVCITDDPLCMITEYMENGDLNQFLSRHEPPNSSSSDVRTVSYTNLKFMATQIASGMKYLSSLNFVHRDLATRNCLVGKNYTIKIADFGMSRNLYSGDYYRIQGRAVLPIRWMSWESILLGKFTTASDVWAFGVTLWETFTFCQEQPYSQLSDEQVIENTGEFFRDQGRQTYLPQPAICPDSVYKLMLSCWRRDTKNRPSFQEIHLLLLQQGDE

[4] = biological target: T3, Mitogen-activated protein kinase kinase kinase 3 (Homo sapiens) (UniProt Q99759); conditions: at 10 µM
T3 sequence (whole entry): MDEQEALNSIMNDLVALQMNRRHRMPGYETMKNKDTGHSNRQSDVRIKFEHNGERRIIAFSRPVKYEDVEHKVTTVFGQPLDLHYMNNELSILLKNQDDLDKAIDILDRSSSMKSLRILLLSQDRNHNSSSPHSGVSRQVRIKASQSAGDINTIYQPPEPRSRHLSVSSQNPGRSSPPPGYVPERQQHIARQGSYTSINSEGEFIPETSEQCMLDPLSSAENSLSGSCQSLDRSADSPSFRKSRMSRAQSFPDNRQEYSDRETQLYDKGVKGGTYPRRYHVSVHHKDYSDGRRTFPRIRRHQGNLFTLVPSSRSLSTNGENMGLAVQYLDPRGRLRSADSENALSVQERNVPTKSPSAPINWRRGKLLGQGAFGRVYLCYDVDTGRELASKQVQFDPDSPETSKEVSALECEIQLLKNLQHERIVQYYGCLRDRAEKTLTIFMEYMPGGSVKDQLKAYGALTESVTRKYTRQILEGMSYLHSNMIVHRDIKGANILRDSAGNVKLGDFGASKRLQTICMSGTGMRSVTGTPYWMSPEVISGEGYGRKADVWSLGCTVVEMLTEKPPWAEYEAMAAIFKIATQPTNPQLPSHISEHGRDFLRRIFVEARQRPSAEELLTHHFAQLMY

[5] = biological target: PAS domain-containing serine/threonine-protein kinase (Homo sapiens) (UniProt Q96RG2); test: Selectivity interaction (Kinase screening (Nanosyn)) EUB0000604a PASK
[6] = biological target: Ribosomal protein S6 kinase alpha-3 (Homo sapiens, UniProt P51812); test: Selectivity interaction (Upstate Kinase Profiler service (Millipore)) EUB0000056c RPS6KA3; conditions: at 1 µM
[7] = biological target: T4, Serine/threonine-protein kinase Nek2 (Homo sapiens) (UniProt P51955); test: Selectivity interaction (ProQinase) EUB0000171b NEK2
T4 sequence (whole entry): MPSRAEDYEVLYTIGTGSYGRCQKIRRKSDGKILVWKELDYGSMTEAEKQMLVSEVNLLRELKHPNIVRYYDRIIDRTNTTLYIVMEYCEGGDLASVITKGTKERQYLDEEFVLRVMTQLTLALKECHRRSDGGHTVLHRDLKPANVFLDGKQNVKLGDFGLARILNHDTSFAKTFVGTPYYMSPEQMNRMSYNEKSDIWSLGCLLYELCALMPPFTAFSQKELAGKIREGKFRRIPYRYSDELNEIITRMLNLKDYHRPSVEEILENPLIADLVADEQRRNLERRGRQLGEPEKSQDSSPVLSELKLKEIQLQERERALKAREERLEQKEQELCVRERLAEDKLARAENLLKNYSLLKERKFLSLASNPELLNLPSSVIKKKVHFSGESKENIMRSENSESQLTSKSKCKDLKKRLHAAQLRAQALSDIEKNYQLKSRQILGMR

[8] = biological target: Tyrosine-protein kinase JAK1 (Homo sapiens, UniProt P23458); test: Selectivity interaction (ActivX KiNativ screen (kinase selectivity in THP-1 cell lysates)) EUB0000639a JAK1; assay type: subcellular; conditions: lysate, at 1 µM
Activated CDC42 kinase 1 = Activated CDC42 kinase 1 (Homo sapiens, UniProt Q07912); test: Selectivity interaction (KinomeScan (DiscoverX)) EUB0000092b TNK2; conditions: at 10 µM
Activated CDC42 kinase 1, sequence (Q07912 whole entry, looked up): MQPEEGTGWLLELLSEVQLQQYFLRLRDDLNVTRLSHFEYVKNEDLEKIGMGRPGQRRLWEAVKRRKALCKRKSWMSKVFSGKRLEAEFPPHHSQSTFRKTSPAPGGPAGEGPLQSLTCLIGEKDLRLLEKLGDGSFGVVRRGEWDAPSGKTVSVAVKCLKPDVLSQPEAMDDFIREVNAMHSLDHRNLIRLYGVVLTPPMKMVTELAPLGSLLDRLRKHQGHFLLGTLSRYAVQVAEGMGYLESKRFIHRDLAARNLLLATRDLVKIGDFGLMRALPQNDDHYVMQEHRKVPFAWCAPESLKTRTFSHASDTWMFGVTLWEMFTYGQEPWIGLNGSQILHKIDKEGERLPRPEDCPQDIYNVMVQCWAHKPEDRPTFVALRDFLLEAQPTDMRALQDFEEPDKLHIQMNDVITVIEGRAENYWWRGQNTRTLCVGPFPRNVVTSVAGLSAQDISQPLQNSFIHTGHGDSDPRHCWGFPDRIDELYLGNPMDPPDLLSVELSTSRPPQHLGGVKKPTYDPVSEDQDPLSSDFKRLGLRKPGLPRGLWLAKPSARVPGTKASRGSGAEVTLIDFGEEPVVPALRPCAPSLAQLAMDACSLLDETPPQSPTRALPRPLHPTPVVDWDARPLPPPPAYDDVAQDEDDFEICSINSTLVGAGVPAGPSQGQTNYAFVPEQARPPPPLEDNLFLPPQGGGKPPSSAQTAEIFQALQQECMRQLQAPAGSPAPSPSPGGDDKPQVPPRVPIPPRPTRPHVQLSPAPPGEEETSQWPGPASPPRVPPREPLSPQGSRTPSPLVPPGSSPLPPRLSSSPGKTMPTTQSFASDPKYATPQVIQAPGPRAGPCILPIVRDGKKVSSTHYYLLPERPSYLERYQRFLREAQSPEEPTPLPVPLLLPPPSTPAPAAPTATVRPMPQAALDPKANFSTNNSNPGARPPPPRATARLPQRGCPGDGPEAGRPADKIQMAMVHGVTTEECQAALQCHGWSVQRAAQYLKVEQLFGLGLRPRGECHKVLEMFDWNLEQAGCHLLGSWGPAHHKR

Ribosomal protein S6 kinase alpha-3, sequence (P51812 whole entry): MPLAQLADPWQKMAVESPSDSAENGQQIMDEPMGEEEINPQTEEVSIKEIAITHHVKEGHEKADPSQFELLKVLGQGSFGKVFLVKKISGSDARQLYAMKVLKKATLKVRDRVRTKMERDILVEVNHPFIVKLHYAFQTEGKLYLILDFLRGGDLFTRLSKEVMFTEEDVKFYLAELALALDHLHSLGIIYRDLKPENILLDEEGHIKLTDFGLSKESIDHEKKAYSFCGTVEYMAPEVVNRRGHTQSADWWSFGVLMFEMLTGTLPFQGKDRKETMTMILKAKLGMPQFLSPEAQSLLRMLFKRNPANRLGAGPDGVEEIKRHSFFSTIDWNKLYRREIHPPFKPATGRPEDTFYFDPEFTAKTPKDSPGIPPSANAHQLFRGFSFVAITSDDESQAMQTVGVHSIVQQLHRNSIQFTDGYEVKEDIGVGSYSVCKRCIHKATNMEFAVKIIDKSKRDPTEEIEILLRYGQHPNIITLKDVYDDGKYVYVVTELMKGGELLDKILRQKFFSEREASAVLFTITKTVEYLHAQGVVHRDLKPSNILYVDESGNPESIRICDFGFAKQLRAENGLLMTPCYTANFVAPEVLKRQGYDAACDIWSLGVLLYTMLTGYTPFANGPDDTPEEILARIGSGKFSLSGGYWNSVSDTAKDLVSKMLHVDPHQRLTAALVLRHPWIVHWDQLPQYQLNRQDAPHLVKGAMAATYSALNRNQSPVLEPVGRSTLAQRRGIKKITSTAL
MAP kinase-interacting serine/threonine-protein kinase 2, sequence (Q9HBH9 whole entry, looked up, the tested form may be a part): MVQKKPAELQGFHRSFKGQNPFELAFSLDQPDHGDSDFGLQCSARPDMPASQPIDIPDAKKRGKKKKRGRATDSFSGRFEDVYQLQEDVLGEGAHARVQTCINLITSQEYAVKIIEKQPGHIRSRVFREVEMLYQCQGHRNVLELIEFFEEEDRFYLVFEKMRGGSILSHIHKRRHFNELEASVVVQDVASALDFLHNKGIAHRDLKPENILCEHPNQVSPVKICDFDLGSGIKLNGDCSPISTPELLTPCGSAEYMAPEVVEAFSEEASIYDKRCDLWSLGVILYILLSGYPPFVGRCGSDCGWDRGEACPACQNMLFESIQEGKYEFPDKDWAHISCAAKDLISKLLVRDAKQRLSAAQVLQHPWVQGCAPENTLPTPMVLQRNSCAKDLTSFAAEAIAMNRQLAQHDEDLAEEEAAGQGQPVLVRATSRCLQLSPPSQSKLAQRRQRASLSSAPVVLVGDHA
Tyrosine-protein kinase JAK1, sequence (P23458 whole entry): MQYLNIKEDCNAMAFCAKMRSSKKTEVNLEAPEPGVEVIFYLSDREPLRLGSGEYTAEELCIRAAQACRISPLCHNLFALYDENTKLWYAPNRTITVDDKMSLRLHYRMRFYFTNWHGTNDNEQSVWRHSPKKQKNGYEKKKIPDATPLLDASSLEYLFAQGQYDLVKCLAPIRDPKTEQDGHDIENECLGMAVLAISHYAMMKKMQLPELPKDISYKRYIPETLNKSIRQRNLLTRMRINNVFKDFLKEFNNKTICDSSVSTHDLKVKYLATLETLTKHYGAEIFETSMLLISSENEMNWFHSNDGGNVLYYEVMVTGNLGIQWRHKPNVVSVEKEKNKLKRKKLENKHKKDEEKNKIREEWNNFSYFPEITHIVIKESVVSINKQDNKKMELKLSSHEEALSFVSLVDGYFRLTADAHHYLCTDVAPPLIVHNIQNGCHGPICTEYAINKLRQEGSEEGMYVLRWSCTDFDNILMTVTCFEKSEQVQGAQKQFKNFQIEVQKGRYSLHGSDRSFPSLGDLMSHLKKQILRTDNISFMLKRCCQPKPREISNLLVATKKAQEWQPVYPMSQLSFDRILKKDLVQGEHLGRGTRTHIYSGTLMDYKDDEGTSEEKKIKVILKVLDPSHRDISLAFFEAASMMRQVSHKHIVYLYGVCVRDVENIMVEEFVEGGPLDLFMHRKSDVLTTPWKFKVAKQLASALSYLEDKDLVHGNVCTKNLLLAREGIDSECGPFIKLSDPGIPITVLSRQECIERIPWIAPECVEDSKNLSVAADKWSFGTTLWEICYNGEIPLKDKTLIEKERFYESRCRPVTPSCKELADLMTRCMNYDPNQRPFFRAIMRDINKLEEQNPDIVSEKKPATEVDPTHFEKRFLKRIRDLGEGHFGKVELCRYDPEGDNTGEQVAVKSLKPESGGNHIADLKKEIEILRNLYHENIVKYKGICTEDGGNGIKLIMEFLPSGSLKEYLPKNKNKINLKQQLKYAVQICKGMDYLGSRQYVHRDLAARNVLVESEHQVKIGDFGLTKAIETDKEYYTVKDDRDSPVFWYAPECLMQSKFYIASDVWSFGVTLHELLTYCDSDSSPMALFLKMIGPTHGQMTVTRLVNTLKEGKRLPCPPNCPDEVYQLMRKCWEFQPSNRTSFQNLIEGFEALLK
PAS domain-containing serine/threonine-protein kinase (Homo sapiens), sequence (Q96RG2 whole entry, the tested form may be a part): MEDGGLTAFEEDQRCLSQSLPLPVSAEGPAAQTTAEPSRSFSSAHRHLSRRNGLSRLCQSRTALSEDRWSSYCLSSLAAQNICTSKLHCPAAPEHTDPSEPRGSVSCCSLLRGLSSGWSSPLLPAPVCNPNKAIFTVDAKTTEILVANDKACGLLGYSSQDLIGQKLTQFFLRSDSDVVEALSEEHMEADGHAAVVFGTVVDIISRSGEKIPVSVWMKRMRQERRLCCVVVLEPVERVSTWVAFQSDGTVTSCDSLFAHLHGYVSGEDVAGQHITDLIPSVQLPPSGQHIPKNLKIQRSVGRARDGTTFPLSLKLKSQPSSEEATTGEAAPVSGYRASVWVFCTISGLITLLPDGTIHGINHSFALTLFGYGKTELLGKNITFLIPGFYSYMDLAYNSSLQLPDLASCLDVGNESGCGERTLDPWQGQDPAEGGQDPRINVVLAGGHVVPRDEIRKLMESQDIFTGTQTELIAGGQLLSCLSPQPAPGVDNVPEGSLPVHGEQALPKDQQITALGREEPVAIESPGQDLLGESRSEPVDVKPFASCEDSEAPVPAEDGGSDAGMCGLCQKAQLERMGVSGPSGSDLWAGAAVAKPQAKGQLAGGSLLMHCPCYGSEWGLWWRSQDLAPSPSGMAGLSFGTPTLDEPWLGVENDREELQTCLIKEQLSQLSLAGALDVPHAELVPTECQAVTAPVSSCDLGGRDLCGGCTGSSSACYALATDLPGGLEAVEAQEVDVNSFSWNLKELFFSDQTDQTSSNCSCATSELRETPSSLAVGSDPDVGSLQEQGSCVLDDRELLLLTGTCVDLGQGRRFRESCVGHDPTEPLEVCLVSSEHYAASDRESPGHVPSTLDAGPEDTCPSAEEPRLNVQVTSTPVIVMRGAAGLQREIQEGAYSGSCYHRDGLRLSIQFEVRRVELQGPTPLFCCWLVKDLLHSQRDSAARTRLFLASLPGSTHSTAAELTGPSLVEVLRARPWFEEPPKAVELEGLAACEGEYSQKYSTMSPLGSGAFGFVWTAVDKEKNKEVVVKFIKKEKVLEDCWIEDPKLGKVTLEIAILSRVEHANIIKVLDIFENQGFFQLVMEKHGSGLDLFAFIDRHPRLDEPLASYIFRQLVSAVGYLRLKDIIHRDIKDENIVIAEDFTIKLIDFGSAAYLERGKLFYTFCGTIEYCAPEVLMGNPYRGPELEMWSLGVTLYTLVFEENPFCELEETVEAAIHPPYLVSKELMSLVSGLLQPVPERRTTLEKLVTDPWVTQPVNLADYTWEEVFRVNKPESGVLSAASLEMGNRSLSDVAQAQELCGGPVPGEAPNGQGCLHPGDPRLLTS

COc1cc(N(C)c2ccnc3ccc(C(F)(F)F)cc23)cc(OC)c1OC
% binding [1]: 0%

Nc1cnc(N2CCc3cc(S(=O)(=O)Nc4c(F)cc(Cl)cc4F)cc(N4CCCC4=O)c32)nc1 [TP-020n]
% of control [2]: 100%

O=C(NOC[C@H](O)CO)c1ccc(F)c(F)c1Nc1ccc(I)cc1F
% of control [3]: 100%

Cc1cc([C@@H](C)Nc2ccccc2C(=O)O)c2nc(N3CCOCC3)cc(=O)n2c1 [AZD-6482]
% of control [4]: 87%

Cc1cnc(Nc2ccc(F)cc2Cl)nc1-c1c[nH]c(C(=O)N[C@H](CO)c2cccc(Cl)c2)c1
% of inhibition [5]: 19%

Cc1ccc(-c2ccc3c(ccc4sc5c(c43)NC[C@@H](C)NC5=O)n2)cn1
% of inhibition [6]: 27%

C=CC(=O)Nc1cccc(C(=O)Nc2ccc(Nc3cc(-c4[nH]c(SC)nc4C)ccn3)cc2)c1
% of control ([7]; at 1 µM): 92% | % of control ([7]; at 5 µM): 78%

CC[C@@H]1[C@H](F)C(=O)N[C@@H]1COc1nccc2cc(C(N)=O)c(OC)cc12 [ZIMLOVISERTIB]
% of inhibition [8]: -1.3%

CCC(=O)N1CCN(c2ccc(-n3c(=O)ccc4cnc5ccc(-c6cnc7ccccc7c6)cc5c43)cc2C(F)(F)F)CC1
% of control (Activated CDC42 kinase 1): 51%
